Assay results from US9783545B2, “Pyrazolopyridazines and methods for treating retinal-degenerative diseases and hearing loss associated with usher syndrome” (Usher III Initiative, Inc., priority 2012, dated 2017).

These molecules were tested against T1, N48K Clarin-1 (Homo sapiens, UniProt P58418, N48K) (assay: Restoration of expression of N48K Clarin-1, 2 hour incubation then 22 hr fresh medium (high content imaging of HA-tagged N48K Clarin-1)). Details: HEK293-Clarin-1 N48K-HA D9 cell line, 2 hr incubation with compound, then 22 hr in fresh medium.
T1 construct: expressed in transfected cells
T1 sequence (P58418 1-232 N48K): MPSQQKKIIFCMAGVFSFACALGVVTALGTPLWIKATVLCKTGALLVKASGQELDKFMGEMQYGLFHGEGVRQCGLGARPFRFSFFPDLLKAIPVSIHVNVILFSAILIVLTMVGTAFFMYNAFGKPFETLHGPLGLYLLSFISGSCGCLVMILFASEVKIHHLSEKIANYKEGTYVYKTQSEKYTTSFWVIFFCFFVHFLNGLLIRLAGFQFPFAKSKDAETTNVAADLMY
Type: cell-based
Experimental: An Assay Method Showing Activity of Compounds of the Invention that Restore Expression of N48K Clarin-1(2 hour incubation)
(§1) Clarin-1 is the protein encoded by the gene mutated in Usher III Syndrome (Adato et al., 2002). The most prevalent mutation in Clarin-1 in North America is N48K, which is reported to cause loss of glycosylation and a trafficking defect (Tian et al., 2009). […] Thus it is believed that restoring the trafficking of N48K Clarin-1 to the cell surface provides an avenue of intervention for Usher III Sydrome.
(§2) In a typical experiment, these cells were seeded on collagen-coated 96-well plates at a cell density of 20,000 cells per well in Dulbecco's Modified Eagle Medium (DMEM) contain 10% fetal bovine serum in a humidified incubator at 37° C., 5% CO2. After an overnight incubation, compounds were added for a 2 hr incubation in DMEM medium contain 10% fetal bovine serum in a humidified incubator at 37° C., 5% CO2. As a negative control, DMSO was used at 0.25% final concentrations. Compounds were typically tested in triplicate fashion. After the 2 hr incubation with compounds, the cells were incubated in fresh medium for 22 hr. The cells were then fixed by the addition of 10% buffered formalin to the wells to achieve a final concentration of 4% formalin. After a 20 min fixation at room temperature, wells were washed three times with phosphate-buffered saline (PBS) containing Triton X-100 (0.02 phosphate, 150 mM NaCl, 0.1% Triton X-100).
(§3) The HA-tagged N48K Clarin-1 was detected with an antibody against the HA tag (HA.11 Clone 16B12 Monoclonal antibody, Covance #MMS-101P) at a dilution of 1:1000 in PBS containing Triton X-100. After a 90 min incubation, wells were washed three times with PBS containing Triton X-100, and a secondary antibody (Goat anti-mouse IgG-Cy3 (1.5 mg/ml), Jackson IR Europe #115165003) was added to the wells at a dilution of 1:250 in PBS containing Triton X-100 for 45 min. Wells were subsequently washed three times with PBS containing Triton X-100, and a final staining for nuclei was performed by the addition of DAPI (4′,6-diamidino-2-phenylindole) at a dilution of 1:10,000. The imaging of the stained cells was performed on an InCell 1000 High Content Imager (GE Healthcare), reading out the Cy3 channel for N48K Clarin-1 and the DAPI channel for nuclei. The images are analyzed and quantitated using a specific algorithm. This algorithm measured the HA-Clarin-1 staining for each cell based on the additional nuclear segmentation of the DAPI signal (FIG. 1). This algorithm measured the intensity per cell, and thus it is less sensitive for variation in cell number. Per well, approximately 2,000 cells were measured to achieve an average density per cell measurement.

Structure (SMILES)	IC50 [µM]
CS(=O)(=O)CCn1nc(C2CC2)c2c(Cl)c(-c3ccccc3)nnc21 [Ix, 4-chloro-3-cyclopropyl-1-(2-methylsulfonylethyl)-5-phenyl-pyrazolo[3,4-c]pyridazine]	8 to 12
Cn1cncc1Cn1nc(-c2cccn2C)c2c(Cl)c(-c3ccccc3)nnc21 [XIIIb, 4-chloro-1-[(3-methylimidazol-4-yl)methyl]-3-(1-methylpyrrol-2-yl)-5-phenyl-pyrazolo[3,4-c]pyridazine]	4 to 8
Clc1c(-c2ccccc2)nnc2c1c(I)nn2CCN1CCCC1 [Ir, 4-chloro-3-iodo-5-phenyl-1-(2-pyrrolidin-1-ylethyl)pyrazolo[3,4-c]pyridazine]	≤ 4
Cn1nc(N2CCCC2)c2c(Cl)c(-c3ccccc3)nnc21 [XIIIc, 4-chloro-1-methyl-5-phenyl-3-pyrrolidin-1-yl-pyrazolo[3,4-c]pyridazine]	8 to 12
FC1(F)CN(CCn2nc(-c3ccccc3)c3c(Cl)c(-c4ccccc4)nnc32)C1 [IIw, 4-chloro-1-[2-(3,3-dilluoroazetidin-1-yl)ethyl]-3,5-diphenyl-pyrazolo[3,4-c]pyridazine]	4 to 8
Cn1nc(-c2ccccc2)c2c(Cl)c(C3=CCCC3)nnc21 [IIIb, 4-chloro-5-(cyclopenten-1-yl)-1-methyl-3-phenyl-pyrazolo[3,4-c]pyridazine]	4 to 8
F[C@@H]1CCN(CCn2nc(C3=CCOCC3)c3c(Cl)c(-c4ccccc4)nnc32)C1 [Iq, 4-chloro-3-(3,6-dihydro-2H-pyran-4-yl)-1-[2-[(3R)-3-fluoropyrrolidin-1-yl]ethyl]-5-phenyl-pyrazolo[3,4-c]pyridazine]	4 to 8
F[C@@H]1CCN(CCn2nc(I)c3c(Cl)c(-c4ccccc4)nnc32)C1 [Ip, 4-chloro-1-[2-[(3R)-3-fluoropyrrolidin-1-yl]ethyl]-3-iodo-5-phenyl-pyrazolo[3,4-c]pyridazine]	4 to 8
CN1CCN(CCn2nc(N3CCCC3)c3c(Cl)c(-c4ccccc4)nnc32)CC1 [Iz, 4-chloro-1-[2-(4-methylpiperazin-1-yl)ethyl]-5-phenyl-3-pyrrolidin-1-yl-pyrazolo[3,4-c]pyridazine]	≤ 4
F[C@@H]1CCN(CCn2nc(-c3ccccc3)c3c(Cl)c(-c4ccccc4)nnc32)C1 [IIu, 4-chloro-1-[2-1[(3R)-3-fluoropyrrolidin-1-yl]ethyl]-3,5-diphenyl-pyrazolo[3,4-c]pyridazine]	≤ 4
Fc1cccc(-c2nn(CCN3CC[C@@H](F)C3)c3nnc(-c4ccccc4)c(Cl)c23)c1 [IIx, 4-chloro-3-(3-fluorophenyl)-1-[2-[(3R)-3-fluoropyrrolidin-1-yl]ethyl]-5-phenyl-pyrazolo[3,4-c]pyridazine]	≤ 4
Cc1nn(CCN2CCCC2)c2nnc(-c3ccccc3)c(Cl)c12 [XIIId, 4-chloro-3-methyl-5-phenyl-1-(2-pyrrolidin-1-ylethyl)pyrazolo[3,4-c]pyridazine]	4 to 8
Cc1ccc(-c2nn(CCN3CCN(C)CC3)c3nnc(-c4ccccc4)c(Cl)c23)o1 [Io, 4-chloro-3-(5-methyl-2-furyl)-1-[2-(4-methylpiperazin-1-yl)ethyl]-5-phenyl-pyrazolo[3,4-c]pyridazine]	≤ 4
Clc1c(-c2ccccc2)nnc2c1c(C1=CCOCC1)nn2CCN1CCCC1 [Is, 4-chloro-3-(3,6-dihydro-2H-pyran-4-yl)-5-phenyl-1-(2-pyrrolidin-1-ylethyl)pyrazolo[3,4-c]pyridazine]	≤ 4
Cc1nn([C@@H]2C[C@H]3CC[C@@H](C2)N3)c2nnc(-c3ccccc3)c(Cl)c12 [XIIIa]	4 to 8
Cc1ccc(-c2nn(CCN3CCN(C)CC3)c3nnc(-c4ccccc4)c(Cl)c23)s1 [Icc, 4-chloro-1-[2-(4-methylpiperazin-1-yl)ethyl]-3-(5-methyl-2-thienyl)-5-phenyl-pyrazolo[3,4-c]pyridazine]	≤ 4
Fc1ccc(-c2nn(CCN3CC[C@@H](F)C3)c3nnc(-c4ccccc4)c(Cl)c23)cc1 [IIy, 4-chloro-3-(4-fluorophenyl)-1-[2-[(3R)-3-fluoropyrrolidin-1-yl]ethyl]-5 phenyl-pyrazolo[3,4-c]pyridazine]	≤ 4
Cn1nc(-c2ccccc2)c2c(Cl)c(I)nnc21 [IIIa, 4-chloro-5-iodo-1-methyl-3-phenyl-pyrazolo[3,4-c]pyridazine]	4 to 8
CN1CCN(CCn2nc(-c3ccccn3)c3c(Cl)c(-c4ccccc4)nnc32)CC1 [Iy, 4-chloro-1-[2-(4-methylpiperazin-1-yl)ethyl]-5-phenyl-3-(2-pyridyl)pyrazolo[3,4-c]pyridazine]	≤ 4
FC1(F)CCN(CCn2nc(-c3ccccc3)c3c(Cl)c(-c4ccccc4)nnc32)C1 [IIv, 4-chloro-1-[2-(3,3-difluoropyrrolidin-1-yl)ethyl]-3,5-diphenyl-pyrazolo[3,4-c]pyridazine]	4 to 8
O=C(Cn1nc(I)c2c(Cl)c(-c3ccccc3)nnc21)N1CC[C@@H](F)C1 [It, 2-(4-chloro-3-iodo-5-phenyl-pyrazolo[3,4-c]pyridazin-1-yl)-1-[(3R)-3-fluoropyrrolidin-1-yl]ethanone]	4 to 8
Clc1c(-c2ccccc2)nnc2c1c(-c1ccccc1)nn2CCn1cccn1 [XIVa, 4-chloro-3,5-diphenyl-1-(2-pyrazol-1-ylethyl)pyrazolo[3,4-c]pyridazine]	≤ 4

What follows are molecules tested against T1, N48K Clarin-1 (assay: Restoration of expression of N48K Clarin-1, 24 hour incubation (high content imaging of HA-tagged N48K Clarin-1)). Details: HEK293-Clarin-1 N48K-HA D9 cell line, 24 hr incubation with compound; read-out: IC50 (the source's name).
Type: cell-based
Experimental: Assay Method Showing Activity of Compounds of the Invention that Restore Expression of N48K Clarin-1 (24 hour incubation)
as §1
as §2, with “for a 24 hr incubation” for “for a 2 hr incubation”, “After the 24 hr incubation” for “After the 2 hr incubation”, “cells were fixed by” for “cells were incubated in fresh medium for 22 hr. The cells were then fixed by”
as §3, with “images were” for “images are”, “measurement. FIG. 1 illustrates high content analysis. DAPI-stained nuclei are used to perform segmentation of the image into individual cells. The density observed in the N48K Clarin-1 channel (Cy3) is then calculated per cell averaged over a field.” for “measurement.”

Structure (SMILES)	EC50 [µM]
Cc1nn(CC(=O)N2CCCC2)c2nnc(-c3ccccc3)c(Cl)c12 [Iw, 2-(4-chloro-3-methyl-5-phenyl-pyrazolo[3,4-c]pyridazin-1-yl)-1-pyrrolidin-1-yl-ethanone]	2 to 5
O=C(Cn1nc(C(F)(F)F)c2c(Cl)c(-c3ccccc3)nnc21)N1CCCC1 [Iaa, 2-[4-chloro-5-phenyl-3-(trifluoromethyl)pyrazolo[3,4-c]pyridazin-1-yl]-1-pyrrolidin-1-yl-ethanone]	2 to 5
CC(=O)CCn1nc(-c2ccccc2)c2c(Cl)c(-c3ccccc3)nnc21 [IIm, 4-(4-chloro-3,5-diphenyl-pyrazolo[3,4-c]pyridazin-1-yl)butan-2-one]	≤ 2
